Molecules are shown by their SMILES. Calls of active or inactive are those of the source.

Our source for the AC50 and EC50 values is ChEMBL document CHEMBL1201862, “PubChem BioAssay data set” (2004).

Data set [1] has as its target Cytochrome P450 2C19 (Homo sapiens, UniProt P33261). Put plainly: Cytochrome panel assay with activity outcomes. Panel member name: p450-cyp2c19 Compounds with AC50 equal or less than 10 uM are considered active. The class given is functional.
For data set [2], the target named is T1, Cytochrome P450 1A2 (Homo sapiens, UniProt P05177).
T1 sequence (P05177 whole entry): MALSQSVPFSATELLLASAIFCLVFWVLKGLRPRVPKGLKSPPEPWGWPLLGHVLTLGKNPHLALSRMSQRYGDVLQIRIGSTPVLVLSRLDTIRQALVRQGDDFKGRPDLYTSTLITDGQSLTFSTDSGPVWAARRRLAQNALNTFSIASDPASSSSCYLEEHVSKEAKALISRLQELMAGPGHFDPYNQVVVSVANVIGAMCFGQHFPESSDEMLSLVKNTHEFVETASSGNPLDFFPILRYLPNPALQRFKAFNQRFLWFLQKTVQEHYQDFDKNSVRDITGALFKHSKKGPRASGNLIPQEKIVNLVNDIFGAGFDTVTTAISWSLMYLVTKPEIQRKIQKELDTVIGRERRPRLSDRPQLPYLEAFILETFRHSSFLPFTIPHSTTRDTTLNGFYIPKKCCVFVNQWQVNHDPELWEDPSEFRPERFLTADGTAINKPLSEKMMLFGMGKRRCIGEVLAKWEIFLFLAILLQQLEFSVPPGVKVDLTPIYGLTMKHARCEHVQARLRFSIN

The target of data set [3] is Cytochrome P450 3A4 (Homo sapiens, UniProt P08684).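 Note: CYP3A4 tested as one member of a cytochrome P450 panel screen.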
In data set [4] the target is Luciferin 4-monooxygenase (Photinus pyralis, UniProt P08659). Put plainly: inhibition of purified Photinus pyralis luciferase – biochemical, luminescence, dose response (AID 1891).
The nature of data set [5]: Luminescence Cell-Based Dose Confirmation HTS to Identify Inhibitors of Platelet Dense Granule Release. [Related pubchem assays: 1663 (Primary HTS), 1678 (Summary of Project)]. In kind it is functional.
The target in data set [6] is T2, Replicative DNA helicase DnaB (Mycobacterium tuberculosis, UniProt P9WMR3).
T2 sequence (P9WMR3 whole entry): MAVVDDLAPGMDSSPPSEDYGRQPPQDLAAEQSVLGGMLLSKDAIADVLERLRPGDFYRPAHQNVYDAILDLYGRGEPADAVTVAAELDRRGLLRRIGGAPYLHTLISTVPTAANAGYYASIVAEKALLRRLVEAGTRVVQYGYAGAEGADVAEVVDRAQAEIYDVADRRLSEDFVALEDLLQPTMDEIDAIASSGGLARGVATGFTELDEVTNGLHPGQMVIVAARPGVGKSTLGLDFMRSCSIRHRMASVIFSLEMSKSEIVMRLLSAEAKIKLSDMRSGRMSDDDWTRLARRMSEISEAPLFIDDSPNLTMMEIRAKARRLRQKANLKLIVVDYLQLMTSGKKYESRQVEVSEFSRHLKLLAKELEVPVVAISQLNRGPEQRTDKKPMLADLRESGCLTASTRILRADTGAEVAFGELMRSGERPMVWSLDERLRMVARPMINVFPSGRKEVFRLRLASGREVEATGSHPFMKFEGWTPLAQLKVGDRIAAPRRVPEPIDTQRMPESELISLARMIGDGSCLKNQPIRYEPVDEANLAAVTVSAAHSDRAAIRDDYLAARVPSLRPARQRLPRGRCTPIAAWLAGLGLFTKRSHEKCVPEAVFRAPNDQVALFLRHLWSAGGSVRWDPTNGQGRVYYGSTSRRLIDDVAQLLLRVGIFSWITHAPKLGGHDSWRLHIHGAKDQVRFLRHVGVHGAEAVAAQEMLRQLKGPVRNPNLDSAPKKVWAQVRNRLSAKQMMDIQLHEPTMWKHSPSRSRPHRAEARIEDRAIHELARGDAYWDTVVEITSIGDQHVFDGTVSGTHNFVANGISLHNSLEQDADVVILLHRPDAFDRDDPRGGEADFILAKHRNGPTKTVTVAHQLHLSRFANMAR
Description: DnaB intein splicing inhibitors, dose response, biochemical, cell-free fluorescence (AID 449749). The class given is functional.

The target in data set [7] is T3, Protein RecA (Mycobacterium tuberculosis, UniProt P9WHJ3).
T3 sequence (P9WHJ3 whole entry): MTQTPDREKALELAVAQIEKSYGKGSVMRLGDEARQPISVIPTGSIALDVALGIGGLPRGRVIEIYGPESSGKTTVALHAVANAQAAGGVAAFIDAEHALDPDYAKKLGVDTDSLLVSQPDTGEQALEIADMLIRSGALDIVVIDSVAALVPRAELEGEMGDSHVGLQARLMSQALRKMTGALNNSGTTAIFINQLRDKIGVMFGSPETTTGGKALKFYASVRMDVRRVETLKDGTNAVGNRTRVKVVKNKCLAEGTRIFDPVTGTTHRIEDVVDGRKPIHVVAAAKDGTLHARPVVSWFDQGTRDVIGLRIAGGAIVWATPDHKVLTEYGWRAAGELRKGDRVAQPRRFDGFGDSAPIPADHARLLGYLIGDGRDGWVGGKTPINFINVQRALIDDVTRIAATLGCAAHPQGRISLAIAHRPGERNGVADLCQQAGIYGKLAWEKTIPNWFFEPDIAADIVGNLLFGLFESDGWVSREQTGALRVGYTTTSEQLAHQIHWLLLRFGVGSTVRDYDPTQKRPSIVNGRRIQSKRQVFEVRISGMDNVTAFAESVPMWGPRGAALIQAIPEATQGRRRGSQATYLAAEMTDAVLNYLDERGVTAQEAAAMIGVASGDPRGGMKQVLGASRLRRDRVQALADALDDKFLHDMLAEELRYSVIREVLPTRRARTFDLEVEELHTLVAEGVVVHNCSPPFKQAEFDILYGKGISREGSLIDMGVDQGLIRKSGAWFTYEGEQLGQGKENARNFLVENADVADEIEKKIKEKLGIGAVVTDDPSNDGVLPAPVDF
Put plainly: Fluorescence Cell-Free Homogeneous Dose Retest to Identify Inhibitors of RecA-Intein Splicing Activity. [Related pubchem assays (depositor defined):AID2097, AID2223, AID489010, AID492950]. The class given is functional.

Data set [8] is described as follows: Trypanosoma cruzi growth suppression in host cells – NIH3T3 host cells, beta-gal luminescence, confirmation (AID 2044).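 Note: intracellular parasites grown in NIH/3T3 mouse fibroblasts as host cells; luminescent beta-galactosidase reporter signal from transgenic T. cruzi replicating inside host cells; inhibitors lower the luminescence signal.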 In kind it is functional, cell-based.
A short description of data set [9]: NIH3T3 cell viability loss – ATP luminescence, mouse fibroblasts, counter-screen, dose response (AID 2010).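 Note: cells exposed to compound for about 90 hours before reading.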 In kind it is functional, cell-based.

Chain of Cytochrome P450 2C19 (P33261 whole entry): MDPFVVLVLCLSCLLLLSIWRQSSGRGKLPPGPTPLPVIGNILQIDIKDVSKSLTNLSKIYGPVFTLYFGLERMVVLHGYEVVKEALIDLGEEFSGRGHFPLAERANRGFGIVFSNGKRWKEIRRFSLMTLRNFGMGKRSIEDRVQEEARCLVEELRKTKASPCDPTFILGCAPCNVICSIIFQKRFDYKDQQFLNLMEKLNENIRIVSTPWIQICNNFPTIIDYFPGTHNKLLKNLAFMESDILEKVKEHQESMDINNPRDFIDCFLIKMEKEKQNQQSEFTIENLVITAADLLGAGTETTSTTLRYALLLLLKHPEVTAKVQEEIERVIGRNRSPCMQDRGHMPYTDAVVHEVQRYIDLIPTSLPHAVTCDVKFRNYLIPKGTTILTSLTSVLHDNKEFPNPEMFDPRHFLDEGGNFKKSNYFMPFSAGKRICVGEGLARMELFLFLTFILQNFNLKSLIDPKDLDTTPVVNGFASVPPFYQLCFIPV
Chain of Cytochrome P450 3A4 (P08684 whole entry): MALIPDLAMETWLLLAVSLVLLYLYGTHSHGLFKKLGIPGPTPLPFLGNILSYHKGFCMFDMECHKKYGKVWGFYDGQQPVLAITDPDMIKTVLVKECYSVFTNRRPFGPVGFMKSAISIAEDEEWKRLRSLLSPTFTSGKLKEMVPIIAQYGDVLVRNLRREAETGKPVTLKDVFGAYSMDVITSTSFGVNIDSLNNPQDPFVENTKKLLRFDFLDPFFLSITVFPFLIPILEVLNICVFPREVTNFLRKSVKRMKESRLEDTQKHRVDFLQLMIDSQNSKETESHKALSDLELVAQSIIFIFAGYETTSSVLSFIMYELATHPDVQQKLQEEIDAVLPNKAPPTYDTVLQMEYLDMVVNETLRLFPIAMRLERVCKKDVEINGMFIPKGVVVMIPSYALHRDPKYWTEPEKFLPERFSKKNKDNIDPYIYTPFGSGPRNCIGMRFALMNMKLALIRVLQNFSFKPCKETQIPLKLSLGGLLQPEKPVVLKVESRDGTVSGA
Chain of Luciferin 4-monooxygenase (P08659 whole entry): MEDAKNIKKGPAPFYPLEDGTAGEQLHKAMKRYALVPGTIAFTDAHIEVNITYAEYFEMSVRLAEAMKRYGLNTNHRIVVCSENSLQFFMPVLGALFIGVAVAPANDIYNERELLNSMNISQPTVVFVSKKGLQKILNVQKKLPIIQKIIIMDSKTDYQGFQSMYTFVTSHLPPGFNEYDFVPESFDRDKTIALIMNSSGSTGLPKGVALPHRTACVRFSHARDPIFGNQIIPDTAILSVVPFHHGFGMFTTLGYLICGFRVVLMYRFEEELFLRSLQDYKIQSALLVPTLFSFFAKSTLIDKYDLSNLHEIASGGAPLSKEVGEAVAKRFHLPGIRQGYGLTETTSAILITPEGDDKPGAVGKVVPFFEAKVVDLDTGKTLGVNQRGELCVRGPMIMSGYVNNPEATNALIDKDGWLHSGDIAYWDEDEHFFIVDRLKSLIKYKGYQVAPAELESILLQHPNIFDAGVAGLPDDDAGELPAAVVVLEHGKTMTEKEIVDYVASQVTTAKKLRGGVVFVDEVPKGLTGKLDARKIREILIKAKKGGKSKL

In the case of `O=C(Nc1ccccc1)N1CC[C@@]2(CCCN(C(=O)c3cc(C(F)(F)F)cc(C(F)(F)F)c3)C2)C1`, the AC50 entry in [1] was “inconclusive”; in [2] it was 25.1 µM (inconclusive); in [3] it was 12.6 µM (inconclusive).
For `O=C(NNS(=O)(=O)c1ccccc1)c1cccnc1`, the EC50 in data set [4] and in [5] was > 112 µM (not active) throughout. Moreover, the AC50 in [3] was 3.98 µM (inconclusive).
Regarding `COc1cc(C2NC(=O)NC(O)(C(F)(F)F)C2C(=O)c2ccc(Cl)cc2)ccc1O` (configuration not stated), the AC50 in [1] (read-out: AC50) is 11.2 µM (inconclusive); in data set [2], 39.8 µM (inconclusive); in data set [3], 15.8 µM (inconclusive).
For `CC(=O)c1ccc(NC(S)=NC(C)CCc2ccccc2)cc1` (configuration not stated), the EC50 in data set [4] and in data set [5] was > 112 µM (not active) each time.
Consider `COc1ccc(N2CCN(CCNC(=O)c3c(C)cc(=O)oc3C)CC2)cc1`, for which the AC50 in [2] was 25.1 µM (inconclusive); in data set [3] it was 14.1 µM (inconclusive).
As to `C=C(C)CC1(NC(C)c2ccccc2)CCCCC1` (configuration not stated), the EC50 in [4] and in [5] was > 112 µM (not active) each time.
With `COc1cc(/C=N/NC(=S)Nc2cccc(Cl)c2C)ccc1OCC(=O)N1CC(C)OC(C)C1` (configuration not stated), the AC50 in data set [6] was 17.5 µM (active). For the same compound, the half-maximal effective concentration (EC50) in data set [7] was 4 µM (active).
Turning to `COC(=O)c1sc(N)c(C(=O)OC)c1Cn1ncc(Cl)c(Cl)c1=O`, the AC50 in data set [6] was 2.66 µM (active). In data set [7], the EC50 was 0.541 µM (active).
In the case of `O=C(Oc1ccc(-n2cnnn2)cc1)c1ccco1`, the AC50 in [6] was 15.3 µM (active). In addition, in data set [7], the EC50 is 12.7 µM (active).
For the compound `O=C(Cn1nc(C(=O)O)c2ccccc2c1=O)NCC1CCCO1` (configuration not stated), the EC50 in data set [4] and in data set [5] was > 112 µM (not active) throughout.
Regarding `O=C(c1nc2ccc([N+](=O)[O-])cc2nc1O)[C@@H](O)c1ccc2c(c1)OCO2`, the AC50 in data set [2] is 3.16 µM (inconclusive).
Turning to `[O-][n+]1c2c(nc3c1-c1ccccc1C3O)CCCC2` (configuration not stated), in data set [6], the AC50 is 19.4 µM (active). The EC50 in data set [7] is 18.6 µM (active).
For `O=C(Oc1cccc(OC(=O)c2ccco2)c1)c1ccco1`, the AC50 in data set [6] is 2.88 µM (active). The EC50 in data set [7] is 19.8 µM (active).
Take `O=c1c(-c2ccc(Cl)cc2)[n+]([O-])c2ccccc2n1OCc1ccccn1`: the results for the AC50 in data set [1] (read-out: AC50), in [2] and in data set [3] were 2.82 µM (inconclusive), 1.26 µM (inconclusive) and 7.08 µM (inconclusive), respectively.
On to `COc1ccc(NC(=O)N2CC[C@@]3(CCCN(C(C)=O)C3)C2)cc1`, for which, in data set [2], the AC50 was 39.8 µM (inconclusive).
In the case of `CCCc1n[nH]c2c1C(c1ccc(OC(=O)N3CCOCC3)c(OC)c1)C(C#N)=C(N)O2` (configuration not stated), in [6], the AC50 is 32.2 µM (active). Besides, the EC50 in data set [7] was 10 µM (active).
On to `O=C(NC(c1ccccc1)c1ccccc1)c1ccc(O)nn1`, for which the EC50 is > 112 µM (not active) in data set [4] and 5.32 µM (active) in data set [5].
For `CCOC1OC2C(CO)OC(n3cnc4c(N)ncnc43)C2O1` (configuration not stated), the EC50 in data set [4] is > 112 µM (not active); in data set [5], 6.37 µM (active).
Turning to `CCOc1ccc(CN2CCN(CC3=Cc4cccc(OC)c4OC3)CC2CCO)cc1` (configuration not stated), the EC50 was 0.303 µM (active) in data set [8], > 60 µM (not active) in data set [9] and > 380 µM (inactive) in data set [7]. Moreover, the AC50 in data set [6] was > 380 µM (inactive).
In the case of `COc1ccc(OC)c(C2C(C#N)=C(N)Oc3c2c(C)nn3-c2cccc(Cl)c2)c1` (configuration not stated), the AC50 in [6] was > 380 µM (inactive). The EC50 in data set [7] was 6.94 µM (active).
Consider `CC(C)Oc1ccc(CNC(=O)c2ccc3c(c2)N(C)CCS3)cc1`, for which the EC50 is 20.4 µM (active) in data set [4] and > 112 µM (not active) in data set [5].
In the same order, the values of `COc1ccccc1CC(=O)NNC(=O)CN(C)S(=O)(=O)c1ccc(Cl)cc1` are > 112 µM (not active) and > 112 µM (not active).
As for `COC(=O)c1[nH]c2cccc(OC)c2c1NC(=O)CN1CCOCC1`, the EC50 in data set [4] and in [5] was > 112 µM (not active) in each case.
Consider `COc1ccc(NC(=O)CN2CCN(CC(=O)Nc3ccccc3Cl)CC2)cc1`, for which, in data set [2], the AC50 was 25.1 µM (inconclusive).
On to `Cc1ccccc1N1C(=O)c2ccccc2C1Nc1cccnc1` (configuration not stated), for which, in [6], the AC50 was > 380 µM (inactive). For the same compound, the EC50 in data set [7] was > 380 µM (inactive).
As for `COc1cc(C[C@H]2C(=O)OC[C@@H]2Cc2ccc(OC)c(OC)c2)ccc1O` [ARCTIGENIN], the AC50 was 0.00251 µM (inconclusive) in data set [1] (read-out: AC50) and 31.6 µM (inconclusive) in data set [2].
In the case of `CCN(CC)C(=O)CSc1nnc(-c2ccco2)n1N`, in [2], the AC50 is 17.8 µM (inconclusive).
Regarding `Cc1ccc(Oc2nc3ccccn3c(=O)c2/C=C(\C#N)C(=O)NC2CCS(=O)(=O)C2)cc1` (configuration not stated), the figures for the EC50 in data set [4] and in data set [5] were > 112 µM (not active) and 8.55 µM (active), respectively.
As for `Cc1ccc(C2C(C#N)=C(N)Oc3[nH]c(-c4ccccc4)nc32)o1` (configuration not stated), in data set [6], the AC50 was 21.5 µM (active). In addition, the EC50 in data set [7] was 5.11 µM (active).
In the case of `Nc1c(NC=O)c(=O)n(Cc2ccccc2)c(=O)n1Cc1ccccc1`, the EC50 in data set [4] and in data set [5] was > 112 µM (not active) throughout.
Turning to `CC1(c2ccccc2)NC(=O)N(CC(=O)N2CCN(S(=O)(=O)c3ccccc3[N+](=O)[O-])CC2)C1=O` (configuration not stated), the EC50 in [4] and in [5] was > 112 µM (not active) in each case.
On to `Cn1c(N)nc2c(nc(OCc3ccccc3)n2[C@@H]2O[C@H](CO)[C@@H](O)[C@@H]2O)c1=O`, for which the half-maximal activity concentration (AC50) in data set [2] is 0.00251 µM (inconclusive).
In the case of `CCOc1ccc(N2C(=O)CC(Sc3nc4ccc(OCC)cc4s3)C2=O)cc1` (configuration not stated), the EC50 in data set [4] and in [5] was > 112 µM (not active) each time.

As usually defined, the AC50 is the concentration at which the activity in the assay is half-maximal. By EC50 is commonly meant the concentration that produces a half-maximal response.
